Laboratory results published in ChEMBL document CHEMBL1134882, “Preparation of chiral 4-benzyloxymethyldihydrofuran-2-one using lipase-catalyzed kinetic resolution: synthesis of (-)-virginiae butanolide C (VB C)” (Bioorg Med Chem Lett, 2002).
“And” between values parts separate entries of the source, which are not always exact repeats. Equal entries are not always repeated.

Experiments:
Burkholderia cepacia [1] = assay: Kinetic resolution by Lipase PS from Pseudomonas cepacia, catalyzed acylation by using Phenyl acetate
Burkholderia cepacia [2] = assay: Kinetic resolution by Lipase PS from Pseudomonas cepacia, catalyzed acylation by using Succinic anhydride
Burkholderia cepacia [3] = assay: Kinetic resolution by Lipase PS from Pseudomonas cepacia, catalyzed acylation by using Isopropenyl acetate
Burkholderia cepacia [4] = assay: Kinetic resolution by Lipase PS from Pseudomonas cepacia, catalyzed acylation by using Vinyl acetate

Compound	TIME (Burkholderia cepacia [1])	TIME (Burkholderia cepacia [2])	TIME (Burkholderia cepacia [3])	TIME (Burkholderia cepacia [4])
CN(C)C(=O)C[C@H](CO)COCc1ccccc1	2 h	8 h		
O=C(C[C@@H](CO)COCc1ccccc1)NCc1ccccc1	10 h			
CCN(CC)C(=O)C[C@H](CO)COCc1ccccc1	3 h and 2 h	4 h	9 h	2 h

The next lines start with the values.

TIME (Burkholderia cepacia [1])	TIME (Burkholderia cepacia [2])	TIME (Burkholderia cepacia [3])	TIME (Burkholderia cepacia [4])	Compound
1 h	5 h			CCNC(=O)C[C@@H](CO)COCc1ccccc1
12 h				CNC(=O)C[C@@H](CO)COCc1ccccc1
